Tests used:
[1] = Solid oral delivery of acyclovir in rats (plasma acyclovir by LC-MS-MS); assay type: in vivo, Male Sprague Dawley rats; conditions: oral tablet, acyclovir 25 mg/kg, no delivery agent
Source text: An oral dosing tube was used.
Results from the animals in each group were averaged for each time point.

[2] = orally administered; cited from earlier work

For `Nc1nc2c(ncn2COCCO)c(=O)[nH]1` [Acyclovir, 9-(2-hydroxyethoxymethyl)guanine], the “Mean plasma peak of Acyclovir (ng/ml) ± SD” value [1] is given as 95.11 ± 73.75 ng/mL and the bioavailability [2] is given as 15-30%.

— patent publication US8952017B2 (Emisphere Technologies, Inc., priority 2004, dated 2015)
